Measured values from US20210002231A1 (Centre National de la Recherche Scientifique, priority 2018, published 2021).
Starred links: 1 amine or outer side, 2 acyl side, 3 side chain; linkers in the order of their positions; H or OH if unused. Non-standard residues stand in square brackets, D forms with d. Residues, ends and D or L forms follow the SMILES beside them. *: point of attachment. Nva(5-(4-Bn-piperidin-1-yl)) = N[C@@H](CCCN1CCC(Cc2ccccc2)CC1)C(=O)O; X1 = O=C1[C@@H](N[*:1])Cc2ccccc2CN1CCC(=O)[*:2]; Dmt = Cc1cc(O)cc(C)c1C[C@H](N)C(=O)O; X2 = c1ccc2[nH]c(*)nc2c1; X4 = c1ccc2sc(*)nc2c1

What was measured:
NPFF2R [1] = target: T1, NPFF2R (Homo sapiens, UniProt Q9Y5X5); experiment: Radioligand competition binding with [125I]-1-DMe-NPFF; design: expressed in transfected cells; HEK293-Glo20F cells (cAMP)
human MOPr [2] = target: T2, human MOPr (Homo sapiens, UniProt P35372); experiment: Radioligand competition binding with [3H]-diprenorphine; design: expressed in transfected cells; HEK293-Glo20F cells (cAMP)
human NPFF1R [3] = target: T3, human NPFF1R (Homo sapiens, UniProt Q9GZQ6); experiment: [35S]-GTPγS binding assay; format: biochemical; design: expressed in transfected cells; settings: for Emax: relative to RFRP3
Experimental: (§1) Stimulation by endogenous RF-amide peptides or test compounds for [^35S]-GTPγS binding to membranes from CHO cells expressing human NPFF1R or NPFF2R, were examined as reported. 1.6. Glo-Sensor cAMP Assay cAMP accumulation assay was essentially done as described with the following modifications: HEK293 cells stably expressing cAMP Glosensor-20F were used, with or without additional stable expression of each individual opioid receptor or NPFF1R. The cAMP responses were measured in presence of D-luciferin (1 mM).

NPFF2R [4] = target: T1, NPFF2R; experiment: [35S]-GTPγS binding assay; format: biochemical; design: expressed in transfected cells;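 for Emax: Emax relative to NPFF as 100%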
Experimental: as §1

human MOPr [5] = target: T2, human MOPr; experiment: cell-based; format: cell-based; design: expressed in transfected cells; HEK293-Glo20F cells (cAMP); settings: for EC50: read-out: MOPr (cAMP) EC50; for Emax: read-out: MOPr (cAMP) Emax
Experimental: as §1

human NPFF1R [6] = target: T3, human NPFF1R; experiment: Radioligand competition binding with [125I]-1-DMe-NPFF; design: expressed in transfected cells; HEK293-Glo20F cells (cAMP)
human MOPr [7] = target: T2, human MOPr; experiment: BRET1 β-arrestin-2 recruitment assay; format: cell-based; design: expressed in transfected cells; host or cells: HEK293 cells stably expressing eYFP-β-arrestin-2, transiently transfected with the Rluc8-MOP plasmid;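 for MOPr (β-arrestin-2) Emax: Emax relative to maximal DAMGO-induced BRET as 100%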
Experimental: Peak response amplitudes were normalized to basal and maximal (cells permeabilized with 20 μM digitonin) fluorescence levels. 1.8. β-Arrestin-2 recruitment assay The β-arrestin-2 recruitment assay was performed as described [34; 45] with minor modifications. Briefly, two days prior the experiment, HEK293 cells stably expressing eYFP-tagged β-arrestin-2 were transfected with the plasmid encoding Rluc8-MOP receptor. β-Arrestin-2 recruitment was measured at 37° C. in presence of 5 μM Coelenterazine H, 5 min after agonist addition.

[8] = Table 3a, HEK293-Glo20F-hMOPr cells
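Throughout, for MOPr (cAMP) Emax: Emax relative to DAMGO as 100%.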

T2 sequence (P35372 whole entry): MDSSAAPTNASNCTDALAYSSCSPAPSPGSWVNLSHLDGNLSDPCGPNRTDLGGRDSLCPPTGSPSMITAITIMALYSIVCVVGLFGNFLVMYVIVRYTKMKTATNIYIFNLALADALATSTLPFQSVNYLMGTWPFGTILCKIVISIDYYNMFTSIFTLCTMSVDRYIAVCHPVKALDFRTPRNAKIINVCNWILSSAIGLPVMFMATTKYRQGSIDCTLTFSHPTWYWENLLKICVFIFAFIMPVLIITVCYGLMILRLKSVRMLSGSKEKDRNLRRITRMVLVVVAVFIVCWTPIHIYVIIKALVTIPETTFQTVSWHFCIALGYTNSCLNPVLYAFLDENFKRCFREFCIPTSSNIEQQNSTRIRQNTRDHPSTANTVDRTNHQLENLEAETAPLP
T1 sequence (Q9Y5X5 whole entry): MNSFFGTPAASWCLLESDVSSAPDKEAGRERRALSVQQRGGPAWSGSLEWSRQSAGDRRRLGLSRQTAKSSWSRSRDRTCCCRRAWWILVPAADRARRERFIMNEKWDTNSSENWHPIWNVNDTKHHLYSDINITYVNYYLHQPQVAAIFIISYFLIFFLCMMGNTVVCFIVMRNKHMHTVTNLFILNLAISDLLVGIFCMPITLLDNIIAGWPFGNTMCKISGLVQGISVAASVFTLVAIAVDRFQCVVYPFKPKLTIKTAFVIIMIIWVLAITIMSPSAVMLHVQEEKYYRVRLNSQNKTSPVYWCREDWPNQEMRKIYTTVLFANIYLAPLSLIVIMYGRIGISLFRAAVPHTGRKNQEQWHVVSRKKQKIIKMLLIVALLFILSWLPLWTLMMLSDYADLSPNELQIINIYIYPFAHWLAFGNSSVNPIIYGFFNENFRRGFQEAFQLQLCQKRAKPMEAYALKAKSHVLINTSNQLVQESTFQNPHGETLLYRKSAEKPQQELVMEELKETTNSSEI
T3 sequence (Q9GZQ6 whole entry): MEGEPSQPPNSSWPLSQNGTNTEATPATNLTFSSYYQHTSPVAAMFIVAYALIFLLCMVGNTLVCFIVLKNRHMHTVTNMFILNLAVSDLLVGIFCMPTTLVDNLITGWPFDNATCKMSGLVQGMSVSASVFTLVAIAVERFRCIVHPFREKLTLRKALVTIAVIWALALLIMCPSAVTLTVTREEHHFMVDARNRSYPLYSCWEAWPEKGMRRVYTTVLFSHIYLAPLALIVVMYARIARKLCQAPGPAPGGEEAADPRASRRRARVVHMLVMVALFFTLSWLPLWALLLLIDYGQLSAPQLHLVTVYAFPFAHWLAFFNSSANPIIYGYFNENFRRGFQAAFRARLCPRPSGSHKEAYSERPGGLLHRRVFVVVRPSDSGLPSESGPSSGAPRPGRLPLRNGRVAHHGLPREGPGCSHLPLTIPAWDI

SMILES	Ki (NPFF2R [1]) [nM]	Ki (human MOPr [2]) [nM]	EC50 (human NPFF1R [3]) [nM]	Emax (human NPFF1R [3]) [%]	EC50 (NPFF2R [4]) [nM]	Emax (NPFF2R [4]) [%]	EC50 (human MOPr [5]; [8]) [nM]	Emax (human MOPr [5]) [%]	Ki (human NPFF1R [6]) [nM]	IC50 (NPFF2R [1]) [nM]	EC50 (human MOPr [5]; Table 3B) [nM]	IC50 (human NPFF1R [6]) [nM]	EC50 (human MOPr [7]; Table 3B, — = non-detectable recruitment, read-out: MOPr (β-arrestin-2) EC50) [nM]	Emax (human MOPr [7]; read-out: MOPr (β-arrestin-2) Emax) [%]	MOPr-induced G protein activation (human MOPr [5]; in words)	β-arrestin-2 recruitment (human MOPr [7]; in words)
CNC(=O)[C@H](Cc1ccccc1)NC(=O)[C@@H](CCCNC(=N)N)NC(=O)[C@@H](N)Cc1c(C)cc(O)cc1C [KGFF13, H-Dmt-D-Arg-Phe-NHMe] (HELM PEPTIDE1{[Cc1cc(O)cc(C)c1C[C@H](N)C(=O)[*:2]].[dR].F.[CN[*:1]]}$$$$V2.0)	206 ± 47	0.11 ± 0.05	> 10000	39 ± 2	> 10000	68 ± 8	1 ± 0.4	97 ± 2	147 ± 16							
Cc1cc(O)cc(C)c1C[C@H](N)C(=O)N[C@H](CCCNC(=N)N)C(=O)N[C@H]1Cc2ccccc2CN(CCC(=O)N[C@@H](CCCCNc2nc3ccccc3s2)C(=O)N[C@@H](Cc2ccccc2)C(N)=O)C1=O [KGFF16, H-Dmt-D-Arg-Aba-β-Ala-Lys(Bth)-Phe-NH2] (H-[Dmt][dR][X1]K(X4)F-NH2)	10.4 ± 2.3	2.6 ± 1.3	273 ± 115	51 ± 7	526 ± 12	88 ± 12	6.2 ± 2	93 ± 6	80 ± 13							
Cc1cc(O)cc(C)c1C[C@H](N)C(=O)N[C@H](CCCNC(=N)N)C(=O)N[C@H]1Cc2ccccc2CN(CC(=O)N[C@@H](CCCN)C(=O)N[C@@H](Cc2ccccc2)C(N)=O)C1=O [KGFF04, H-Dmt-D-Arg-Aba-Gly-Orn-Phe-NH2]	45 ± 8	0.67 ± 0.29	> 10000	25 ± 4	963 ± 168	67 ± 3	9.5 ± 1.5	70 ± 4	780 ± 90							
Cc1cc(O)cc(C)c1C[C@H](N)C(=O)N[C@@H](CCCN1CCCCC1)C(=O)N[C@@H](Cc1ccccc1)C(N)=O [KGFF10, H-Dmt-Apa-Phe-NH2]	2100	68 ± 48					598 ± 35	91 ± 10	> 10000							
Cc1cc(O)cc(C)c1C[C@H](N)C(=O)N[C@H](CCCNC(=N)N)C(=O)N[C@H]1Cc2ccccc2CN(CCC(=O)N[C@@H](CCCN2CCC(Cc3ccccc3)CC2)C(=O)N[C@@H](Cc2ccc(O)cc2)C(N)=O)C1=O [DP0004, H-Dmt-D-Arg-Aba-β-Ala-Bpa-Tyr-NH2] (H-[Dmt][dR][X1][Nva(5-(4-Bn-piperidin-1-yl))]Y-NH2)								88 ± 4		< 50	4.2 ± 0.7	50 to 500	126	64		
Cc1cc(O)cc(C)c1C[C@H](N)C(=O)N[C@H](CCCNC(=N)N)C(=O)N[C@H]1Cc2ccccc2CN(CCC(=O)N[C@@H](CCCCNc2nc3ccccc3[nH]2)C(=O)N[C@@H](Cc2ccccc2)C(N)=O)C1=O [KGFF14, H-Dmt-D-Arg-Aba-β-Ala-Lys(Bim)-Phe-NH2] (H-[Dmt][dR][X1]K(X2)F-NH2)	4.15 ± 1.35	1.6 ± 0.3	76 ± 26	74 ± 1	89 ± 7	73 ± 18	5.9 ± 2.5	99 ± 4	4.54 ± 0.01							
Cc1cc(O)cc(C)c1C[C@H](N)C(=O)N[C@@H](CCCN1CCC(Cc2ccccc2)CC1)C(=O)N[C@@H](Cc1ccccc1)C(N)=O [KGFF11, H-Dmt-Bpa-Phe-NH2]	406 ± 95	> 10000					> 10000		2720							
Cc1cc(O)cc(C)c1C[C@H](N)C(=O)N(C)[C@H](C)C(=O)N[C@H]1Cc2c(ccc3ccccc23)CN(CC(=O)N[C@@H](CCCN2CCC(Cc3ccccc3)CC2)C(=O)N[C@@H](Cc2ccccc2)C(N)=O)C1=O [DP0014, H-Dmt-N(Me)-D-Ala-1AnaGly-Bpa-Phe-NH2]								76		~40	5.3	< 40			significant	non-detectable
Cc1cc(O)cc(C)c1C[C@H](N)C(=O)N[C@H](CCCNC(=N)N)C(=O)N[C@H]1Cc2ccccc2CN(CC(=O)N[C@@H](CCCNC(=N)N)C(=O)N[C@@H](Cc2ccccc2)C(=O)O)C1=O [KGFF02, H-Dmt-D-Arg-Aba-Gly-Arg-Phe-OH]	251 ± 25	0.59 ± 0.15					1.5 ± 0.7	89 ± 2	2540							
